Data: US20230235286A1, “MRNA TRANSFECTION OF IMMUNE CELLS” (Carisma Therapeutics Inc., priority 2020, published 2023)

B1: IFN-γ: recombinant human IFN-γ (peprotech) (protein, UniProt P01579 24-161, looked up)
Interferon gamma: QDPYVKEAENLKKYFNAGHSDVADNGTLFLGILKNWKEESDRKIMQSQIVSFYFKLFKNFKDDQSIQKSVETIKEDMNVKFFNSNKKKRDDFEKLTNYSVTDLNVQRKAIHELIQVMAELSPAAKTGKRKRSQMLFRG
B2: CD40L: Recombinant CD40 ligand (Peprotech) (protein, UniProt P29965 113-261, looked up)
CD40 ligand, soluble form: MQKGDQNPQIAAHVISEASSKTTSVLQWAEKGYYTMSNNLVTLENGKQLTVKRQGLYYIYAQVTFCSNREASSQAPFIASLCLKSPGRFERILLRAANTHSSAKPCGQQSIHLGGVFELQPGASVFVNVTDPSQVSHGTGFTSFGLLKL

Legend:
[1] = tested on: human macrophages; experiment: M1/M2 marker expression on CAR macrophages by flow cytometry; type: cell-based; conditions: mRNA transfected CAR macrophages
Description: IFN containing media was washed off after the indicated time. IFN-primed CAR macrophages were used for further analysis.
(§1) M1/M2 markers on primary human macrophages were detected with the following panel: Anti-CD11B PE (Biolegend, 301306), Anti-CD80 BV605 (Biolegend, 305225), Anti-CD86 BV711 (Biolegend, 305440), Anti CD206 BV421 (Biolegend, 321126), Anti CD163 APC-CY7 (Biolegend, 333622), anti HLA-DR BV785 (Biolegend, 307642), Anti HLA ABC PE/CY7 (Biolegend, 311430) and Live/Dead Fixable Aqua Dead Cell Stain Kit. Cytokine production (IL12, IFN-γ, TNF-α, IL6, IL8, IL1b, MCP-1, IL10, IL4, IL13, and other human cytokines) was evaluated in supernatant collected from macrophages (control or CAR) treated as described below using the MSD instrument per manufacturers recommendations (Meso Scale Discovery). In some cases, macrophages were co-cultured with antigen-bearing target cells at indicated effector to target ratios.
(§2) Human macrophages were electroporated with HER2 CAR mRNA comprising m6AGCap1 and PsU modifications. Cells were cultured with cytokines that induce an M1 phenotype such as IFN-alpha, IFN-beta, IFN-gamma, IFN-gamma plus lipopolysaccharide (LPS), TNF-alpha, IL-6 or a STING ligand (STING-L) for up to 48 hours and then cytokines were washed off and fresh media was added. CAR expression and M1 marker expression were measured on days 2 and 7 after transfection. Fluorescent labeled HER2+ breast cancer cells (CRL2351) were co-cultured with HER2 CAR macrophages two days after the macrophages were transfected. Cancer cell growth was monitored via its fluorescence on an Incucyte live imaging microscope every four hours. The Effector (CAR macrophage) to Target (cancer cell) ratio was 5:1.
Human macrophages were electroporated with 300 nM CAR mRNA comprising m6AGCap1 and PsU modifications. Cells were cultured with 20 ng/mL IFNs for 24 hours and then the cells were washed to remove cytokines. CAR expression was detected by Flow Cytometry (Attune) on day 2 after transfection. Cells were then co-cultured with a Nuc-Light labeled, HER2+ breast cancer cell line (CRL2351) at the Effector to Target ratio of 3:1. Cancer cell growth was monitored via its fluorescence on an Incucyte live imaging microscope. CAR expression and M1 markers in macrophages were detected by Flow Cytometry (Attune) on day 7 after transfection.

[2] = tested on: human macrophages; experiment: Cytokine secretion of CAR macrophages co-cultured with HER2+ breast cancer cells (MSD); type: cell-based; conditions: supernatant 48 hours after co-culture, E:T 3:1
Description: as §1
Human macrophages were electroporated with 150 nM HER2 CAR mRNA comprising m6AGCap1 and PsU modifications. HER2+ breast cancer cells (CRL2351) were co-cultured with CAR macrophages after the macrophages were transfected with the CAR mRNA at an Effector (CAR macrophage) to Target (cancer cell) ratio of 3:1. Supernatant was collected 48 hours after the cancer cells and macrophages were co-cultured and cytokine levels were measured using a Meso Scale Discovery (MSD) instrument.

[3] = tested on: human macrophages; experiment: CAR expression on macrophages by flow cytometry; type: cell-based; conditions: two days after transfection, 20 ng/mL IFNs for 24 hours
[4] = tested on: human macrophages; experiment: mCherry expression in transfected macrophages with IFN-γ, sunitinib or ABCE1 (Incucyte); type: cell-based; conditions: cultured one day with different doses of IFN-γ
Experimental: The transfection efficiency, persistence of expression, and intensity of expression of the fluorescent reporter gene mCherry in human monocytes or macrophages was evaluated using real time live microscopy on the Incucyte (Sartorius) for the indicated period of time.
Macrophages were treated with 0-10 µM sunitinib (an RNAse-L inhibitor) for 2 hours prior to mRNA electroporation or transfection. The level of expression and persistence of expression of the encoded transgene was assessed using methods described above.
Human macrophages were transfected with mCherry mRNA comprising m6AGCap1 and PsU or N1mPsU modifications and were then cultured for one day with different doses of IFN-γ. mCherry expression was monitored on an Incucyte live imaging microscope.
In order to determine whether an RNaseL inhibitor could rescue IFN-γ-induced instability of transfected mRNA, human macrophages were treated with 1 µM sunitinib (an RNaseL inhibitor) two hours prior to the transfection of mCherry mRNA comprising m6AGCap1 and PsU modifications. Transfected cells were then cultured for one day with different dosages of IFN-γ. mCherry expression was monitored on an Incucyte live imaging microscope.
The effect of another RNaseL inhibitor (RLI or ABCE1) was also tested to further validate the concept. […]

[5] = tested on: human macrophages; experiment: Viability of macrophages electroporated or transfected with CAR mRNA (FACS); type: cell-based; conditions: two days after transfection, 20 ng/mL IFNs for 24 hours
Experimental: as §2, with “The Effector (CAR macrophage) to Target (cancer cell) ratio was 5:1.” left out
Five different mRNA modifications were also tested to determine if interferon treatment differentially affected macrophages transfected with mRNA comprising different modifications. […] CAR expression and M1 markers were detected by Flow Cytometry (Attune) on day four after electroporation. […] Cancer cell growth was monitored via its fluorescence on an Incucyte live imaging microscope every four hours.
Human macrophages were electroporated with 300 nM CAR mRNA comprising m6AGCap1 and PsU modifications. […] CAR expression was detected by Flow Cytometry (Attune) on day 2 after transfection. […] Cancer cell growth was monitored via its fluorescence on an Incucyte live imaging microscope. […]

[6] = tested on: primary human macrophages; experiment: M1 and M2 marker expression after priming with CD40L, 4-1BB or 4-1BBL; type: cell-based; conditions: macrophages transfected with CAR mRNA, 3 days
Experimental: (§3) To generate Her2-Zeta CAR expressing macrophages, primary human macrophages were suspended in EP buffer (MaxCyte) containing 300 nM mRNA (TriLink) at a concentration of 90×10^6 cells/mL. 100 µL of cell mixture was added to an electroporation cassette (OC 100x2; MaxCyte) and electroporated using the Experimental T cell 1 setting. Cells were removed from the cassette, plated in 3 mL of TexMACS media (Miltenyi Biotech) containing 20% FBS (Gibco) on UpCell plates (Thermo Scientific), and incubated overnight at 37° C. and 5% CO2.
(§4) Recombinant CD40 ligand (Peprotech), 4-1BB ligand (Enzo Life Sciences), and 4-1BB receptor (Peprotech) were re-suspended in molecular grade water to a stock concentration of 100 µg/mL. Stock solution was then used to create working solutions in PBS ranging from 2 -0.002 µg/mL. 100 µL of working solution was added to wells in a 96-well plate and left at room temperature for 4 hours.
For detection of cell surface proteins, macrophages were plated onto wells coated with agonist molecules in a final volume of 200 µL TexMACS media + 10% FBS + 10 ng/mL GM-CSF and incubated for 3 days at 37° C. and 5% CO2. Cells were incubated in 300 µL Accutase (Sigma) for 30 min and transferred to 96-well round bottom plate for staining. Cells were incubated in FACS buffer containing 20 µg/mL Her2-His for 20 min at RT, followed by incubation in Human TruStain FcX for 10 min at RT. […]

[7] = tested on: CRL-2351 cells expressing nuclear GFP; experiment: Tumor killing by macrophages and CAR macrophages primed on plates coated with CD40L, 4-1BB or 4-1BBL; type: cell-based, human; conditions: plate-coated protein
Experimental: as §3, §4
Plates were removed from the incubator and left at room temperature for 30 minutes. Cells were detached from plate, counted using the NC-200 automated cell counter (Chemomtech), and re-suspended in TexMACS media with 10% FBS. […] Cell lysis was detected using the Incucyte (Essen Bioscience). Tumor cell death was calculated by integrated GFP intensity per well relative to time 0.

| Molecule | M1 phenotype based on CD86 expression [1] | M2 markers based on CD163 expression [1] | cytokine secretion [2] | further results |
| --- | --- | --- | --- | --- |
| IFN-α | induction of an M1 phenotype | reduction of M2 markers | increased secretion of the cytokines IL-6, IL-8 and TNFα |  |
| IFN-γ: recombinant human IFN-γ (peprotech) | induction of an M1 phenotype | reduction of M2 markers | increased secretion of the cytokines IL-6, IL-8 and TNFα | CAR expression [3]: very high except in macrophages that had been treated with IFN-γ; mCherry mRNA expression [4]: reduced mCherry mRNA expression |
| B1 |  |  |  | CAR macrophage viability [5]: very high except in macrophages that had been treated with IFN-γ |
| B2 |  |  |  | M1 phenotype (M1 and M2 markers) [6]: induced an M1 phenotype; tumor killing ability of macrophages and CAR macrophages [7]: significantly improved the tumor killing ability |
